Experimental data reported in ChEMBL document CHEMBL4190201, “Anti-inflammatory 12,20-Epoxypregnane and 11,12-seco-Pregnane Glycosides from the Stems of Hoya kerrii” (J Nat Prod, 2017).

Tests used:
[1] = tested on: RAW264.7; experiment: Antiinflammatory activity in mouse RAW264.7 cells assessed as inhibition of LPS-induced nitric oxide production by measuring nitrite accumulation by Griess method; format: functional, cell-based
[2] = tested on: RAW264.7; experiment: Antiinflammatory activity in mouse RAW264.7 cells assessed as inhibition of LPS-induced iNOS mRNA expression after 20 hrs by RT-PCR method; format: functional, cell-based
[3] = tested on: RAW264.7; experiment: Antiinflammatory activity in mouse RAW264.7 cells assessed as inhibition of LPS-induced COX2 mRNA expression after 20 hrs by RT-PCR method; format: functional, cell-based
[4] = tested on: RAW264.7; experiment: Cytotoxicity in LPS-stimulated mouse RAW264.7 cells at =>100 uM by MTT assay; format: cell-based
[5] = tested on: RAW264.7; experiment: Cytotoxicity in LPS-stimulated mouse RAW264.7 cells at =>10 uM by MTT assay; format: cell-based

IC50 ([1]; read-out: IC50)	Structure (SMILES)	other results
12.6 µM	COC(=O)[C@H]1[C@@H](C(=O)CC[C@H]2[C@H](C)OC(=O)[C@H]2C)CC=C2C[C@@H](O[C@H]3C[C@@H](OC)[C@@H](OC(C)=O)[C@@H](C)O3)CC[C@@]21C	Activity [2]: Dose-dependent effect; Activity [3]: Dose-dependent effect; Activity [4]: Toxic
46.5 µM	COc1ccc2c(c1)c(CC(=O)O)c(C)n2C(=O)c1ccc(Cl)cc1 [INDOMETHACIN]	
9.3 µM	O=C(/C=C/c1ccc(O)c(O)c1)OCCc1ccccc1 [CAFFEIC ACID PHENETHYL ESTER]	
54.5 µM	CC(C)Cc1ccc(C(C)C(=O)O)cc1 (stereo not drawn) [IBUPROFEN]	
84 µM	CO[C@@H]1C[C@H](O[C@H]2CC[C@@]3(C)C(=CC[C@@H]4[C@@H]3C(=O)[C@]3(O)O[C@H](C)[C@@H]5CC[C@@]4(O)[C@@]53C)C2)O[C@H](C)[C@@H]1O	
> 100 µM	CO[C@@H]1C[C@H](O[C@H]2CC[C@@]3(C)C(=CC[C@]4(O)[C@@H]3C(=O)[C@@H]3OC(C)[C@@H]5CC[C@@]4(O)[C@]35C)C2)O[C@H](C)[C@@H]1O[C@@H]1O[C@H](CO)[C@@H](O)[C@H](O)[C@H]1O (stereo partly drawn)	
	CC(=O)Oc1ccccc1C(=O)O [ASPIRIN]	IC50 [1]: 43.2 µM
60.4 µM	CO[C@@H]1C[C@H](O[C@H]2CC[C@@]3(C)C(=CC[C@@H]4[C@@H]3C(=O)O[C@@]43CC[C@H]4[C@H](C)OC(=O)[C@]43C)C2)O[C@H](C)[C@@H]1OC(C)=O	
87.3 µM	COC(=O)[C@H]1[C@@H](C(=O)CC[C@H]2[C@H](C)OC(=O)[C@@H]2C)CC=C2C[C@@H](O[C@H]3C[C@@H](OC)[C@@H](O)[C@@H](C)O3)CC[C@@]21C	Activity [5]: Toxic
91.2 µM	CO[C@@H]1C[C@H](O[C@H]2CC[C@@]3(C)C(=CC[C@@H]4[C@@H]3C(=O)[C@@H]3O[C@H](C)[C@@H]5CC[C@@]4(O)[C@]35C)C2)O[C@H](C)[C@@H]1OC(C)=O	
87.8 µM	CO[C@@H]1C[C@H](O[C@H]2CC[C@@]3(C)C(=CC[C@]4(O)[C@@H]3C(=O)[C@@H]3O[C@H](C)[C@@H]5CC[C@@]4(O)[C@]35C)C2)O[C@H](C)[C@@H]1OC(C)=O	
93.8 µM	CO[C@@H]1C[C@H](O[C@H]2CC[C@@]3(C)C(=CC[C@@H]4[C@@H]3C(=O)O[C@@]43CC[C@H]4[C@H](C)OC(=O)[C@]43C)C2)O[C@H](C)[C@@H]1O	
> 100 µM	CO[C@@H]1C[C@H](O[C@H]2CC[C@@]3(C)C(=CC[C@@H]4[C@@H]3C(=O)[C@@H]3O[C@H](C)[C@@H]5CC[C@@]4(O)[C@]35C)C2)O[C@H](C)[C@@H]1O[C@@H]1O[C@H](CO)[C@@H](O)[C@H](O)[C@H]1O	
96.5 µM	CO[C@@H]1C[C@H](O[C@H]2CC[C@@]3(C)C(=CC[C@@H]4[C@@H]3C(=O)[C@@H]3O[C@H](C)[C@@H]5CC[C@@]4(O)[C@]35C)C2)O[C@H](C)[C@@H]1O	Activity [4]: Toxic
31.6 µM	COC(=O)[C@H]1[C@@H](C(=O)CC[C@H]2[C@H](C)OC(=O)[C@@H]2C)CC=C2C[C@@H](O[C@H]3C[C@@H](OC)[C@@H](OC(C)=O)[C@@H](C)O3)CC[C@@]21C	
62.5 µM	CO[C@@H]1C[C@H](O[C@H]2CC[C@@]3(C)C(=CC[C@]4(O)[C@@H]3C(=O)[C@@H]3O[C@H](C)[C@@H]5CC[C@@]4(O)[C@]35C)C2)O[C@H](C)[C@@H]1O	
66.1 µM	COC(=O)[C@H]1[C@@H](C(=O)CC[C@H]2[C@H](C)OC(=O)[C@H]2C)CC=C2C[C@@H](O[C@H]3C[C@@H](OC)[C@@H](O)[C@@H](C)O3)CC[C@@]21C	

Structure (SMILES)	IC50 ([1]; read-out: IC50)	other results
N=C(NCCC[C@H](N)C(=O)O)N[N+](=O)[O-] [NITROARGININE]	37.7 µM	
